Values joined by “and” are separate entries in the source; they are usually repeats but may differ in a detail not shown here. Identical values can stand only once.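 How tested: cells in 96-well plates exposed to compound for 48 hours at five concentrations. GI50 = concentration required for 50% inhibition of growth. Definition used: TGI = concentration required for complete inhibition of growth.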
Tests used:
Assay in all cases: NCI tumour cell line growth inhibition, 48 h
[1] = tested on: MOLT-4 leukemia
[2] = tested on: HS 578T breast
[3] = tested on: SK-MEL-2 melanoma
[4] = tested on: K-562 leukemia
[5] = tested on: RXF 393 renal
[6] = tested on: A549 NSCLC
[7] = tested on: HOP-92 NSCLC

SMILES	GI50 [1] [µM]	TGI [1]	GI50 [2] [nM]	TGI [2] [µM]	GI50 [3] [µM]	TGI [3]	GI50 [4] [µM]	TGI [4]	GI50 [5] [nM]	TGI [5]	GI50 [6] [µM]	TGI [6] [µM]	GI50 [7] [µM]	TGI [7] [µM]
COc1ccc2c(Nc3ccc(NS(C)(=O)=O)cc3)c3ccccc3nc2c1	0.111	22.5 µM	292	2.64	0.334	2.29 µM	0.674	> 100 µM	871	2.4 µM	0.151	2.7	0.136	2.66
COc1cc(/C=C2\CC3C4CC=C5C[C@@H](OC(C)=O)CC[C@]5(C)C4CC[C@]3(C)C2=O)ccc1OCCCn1ccnc1 (stereo not given in full)	20.5	> 50 µM	8260	21.3	16.8	> 50 µM	9.69	24.7 µM	13000	30.3 µM	13	33.9	25.4	> 50
NC(=O)c1cc(Br)cc(C2CCCCC2)c1O	13.9	34.5 µM	–	–	15.8	29.7 µM	14.4	34.5 µM	6440	22 µM	13.4	27.1	12.2	25.7
COC1CC2C=C(C)/C=C/C=C/C(=O)NC(c3ccccc3)C/C=C/CCC(O)CC(=O)C2=C1O (stereo not given)	0.364	1.4 µM	393	1.91	0.223	0.6 µM	0.212	1.03 µM	314	1.09 µM	0.241	1.15	0.141	0.457
COC(=O)c1c2c(c(C)[n+]([O-])c1C)C(=O)C=C(NCc1ccc(F)c(F)c1)C2=O	0.588	2.12 µM	1890	6.17	0.874	2.37 µM	0.0745	–	1050	2.39 µM	0.48	2.2	1.56	3.61
CCN1C(=S)N(CC)C2C1NC(=S)N2/N=C/C=C/c1ccccc1 (stereo not given)	1.02	25.4 µM	2110	8.96	1.62	13.7 µM	0.382	14.1 µM	1570	6.58 µM	2.52	17.8	4	20.9
Cc1sc(C)c(Cc2c(C)sc(C)c2CCl)c1CCl	> 100	> 100 µM	> 100000	> 100	> 100	> 100 µM	23	> 100 µM	> 100000	> 100 µM	> 100	> 100	–	–
ClC(Cl)c1nc(-c2cccnc2)n2nc(-c3ccccc3)cc2n1	0.984	> 100 µM	2500	6.05	–	–	1.33	> 100 µM	1130	2.45 µM	1.3	9	2.16	5.29
Cc1cc(C)c(C[N+](C)(C)C)c(C)c1C	0.349	> 52.9 µM	338	9.94	0.654	5.04 µM	0.416	> 100 µM	249	3.43 µM	0.281	39.1	0.285	13.5
O=c1nc(Nc2cccc(Cl)c2)oc2cc(Cl)oc(=O)c12	3.24	16.3 µM	2810	17.4	2.02	4.61 µM	16.4	> 100 µM	3220	8.52 µM	19.7	60.6	5.01	19.5
C=C1C(=O)OC2CC1C(O)C/C(C)=C/CC/C(C)=C/C(O)CC2C (stereo not given)	–	3.11 µM	–	11	–	12.2 µM	–	> 30.5 µM	–	2.96 µM	–	28.1	–	4.17
OCC1OC(n2ccc3c(NO)ncnc32)C(O)C1O (stereo not given)	0.153	0.477 µM	332	> 24.1	0.155	0.429 µM	0.201	4.53 µM	163	1.14 µM	0.087	3.58	0.154	0.608
COc1cc2c3c(c1)c1cc(OC)c(OC)cc1c[n+]3CC2	5.16	50 µM and > 100 µM	–	20.6	16.7	50 µM and 71.3 µM	40.5	50 µM and > 100 µM	–	50 µM and > 100 µM	76.7	> 100	–	–
CN1CCCN(C)C1c1cc([N+](=O)[O-])ccc1O	–	59.8 µM	–	67.8	–	> 100 µM	–	> 100 µM	–	> 100 µM	–	> 100	–	76.6
C1CSCCCSCCSCCCSC1	–	> 100 µM	–	> 100	–	> 100 µM	–	> 100 µM	–	> 100 µM	–	> 100	–	> 100
C#CC1(O)C(COP(=O)(O)OC2CC(n3cc(F)c(=O)[nH]c3=O)OC2CO)OC(n2ccc(N)nc2=O)C1O (stereo not given)	< 0.01	> 39 µM	304	> 35.4	0.0735	1.66 µM	0.0101	> 100 µM	< 34.2	2.37 µM	< 0.01	> 54.4	< 0.0242	3.75
CC(C)c1ccc(C(=O)Nc2sc3c(c2C#N)CCC(=O)C3)cc1	0.412	> 100 µM	546	> 100	1.6	5.97 µM	0.203	–	271	1.14 µM	1.63	> 100	0.607	2.4
Nc1ccc2c(c1)NCCN2	–	89.7 µM	–	> 100	–	> 100 µM	–	> 100 µM	–	> 100 µM	–	> 100	–	> 100
NNc1cccc(/C=C/c2ccccc2)cc1=O	3.94	> 100 µM	18500	> 100	70.1	> 100 µM	3.13	> 100 µM	46500	> 100 µM	7.78	> 100	8.71	70.7
Cn1ncc2c(N)nc(N3CCCCC3)nc21	–	–	28300	76.3	23	71.6 µM	62	> 100 µM	18200	58.7 µM	66.1	> 100	44.3	> 100

SMILES	GI50 [1] [µM]	TGI [1]	GI50 [2] [nM]	TGI [2] [µM]	GI50 [3] [µM]	TGI [3]	GI50 [4] [µM]	TGI [4]	GI50 [5] [nM]	TGI [5]	GI50 [6] [µM]	TGI [6] [µM]	GI50 [7] [µM]	TGI [7] [µM]
CC(C)c1ccc(/C(C(=O)O)=C(\O)C(=O)O)cc1	–	> 100 µM	–	> 100	–	> 100 µM	–	> 100 µM	–	> 100 µM	–	> 100	–	> 100
CCOC(=O)c1[nH]c(-c2ccc(Cl)cc2)cc1-c1cccnc1	0.683	> 100 µM	–	–	–	–	0.391	> 100 µM	1270	7.23 µM	0.812	> 100	0.572	84.7
COCCOC(=O)NC(=O)Nc1ccc(/C(=N/O)c2ccc(Cl)cc2)cc1	0.109	7.76 µM	157	34.3	–	29 µM	0.0633	31.9 µM	86.6	3.2 µM	0.284	> 85.3	1.4	44.1
CCOC(=O)C(CO)c1nc2c([nH]c1=O)c(=O)n(C)c(=O)n2C (stereo not given)	–	–	–	> 100	–	> 100 µM	–	> 100 µM	–	–	–	> 100	–	–
Cc1nc2sc(C(=O)Nc3cccc4ccccc34)c(N)c2cc1C(=O)c1ccccc1	2.27	> 50 µM	1300	> 50	3.92	> 50 µM	0.93	> 50 µM	–	–	0.403	> 50	6.82	> 50
O=C(c1ccc2ncc(-c3nc(NC4CC4)ncc3F)n2c1)N1CCOCC1	2.48	7.1 µM	2210	8.04	1.66	3.81 µM	3.21	29 µM	1070	3.02 µM	2.48	> 100	1.93	6.86
C[C@]1(CO)[C@H]2CC[C@@]34C=C[C@@](CO)(CC[C@H]3[C@]2(C)CC[C@H]1O)C4	–	48.9 µM	–	> 100	–	> 100 µM	–	–	–	> 100 µM	–	> 100	–	> 100
COc1ccc(/C=C/c2nc(NCCCN(C)C)c3ccccc3n2)cc1	1.61	3.55 µM	3220	11	1.88	3.52 µM	1.99	4.4 µM	3680	12.1 µM	2.62	7.65	2.5	8.15
CC(C)(C)NCc1cc(C(C)(C)C)cc(-c2ccc(Cl)cc2)c1O	–	–	–	29	–	37.9 µM	–	–	–	–	–	32.4	–	28.3
CCCCNN	–	> 100 µM	–	> 100	–	> 100 µM	–	> 100 µM	–	> 100 µM	–	> 100	–	–
COc1ccc(-c2cc(/C=C3\C(=O)Nc4ccc(Cl)cc43)[nH]n2)cc1	5.13	25.6 µM	3520	22.4	–	–	2.56	13.1 µM	5610	19.1 µM	6.54	18.5	–	–
COc1cc(/C=C\[N+](=O)[O-])ccc1OCc1ccccc1	2.7	7.61 µM	3810	> 100	3.67	14.6 µM	2.06	11.1 µM	1800	3.73 µM	3.17	10.5	12.5	31.4
O=C(Nc1ccc(Cl)cc1)c1ccc(NC2=C(Cl)C(=O)N(Cc3ccccc3)C2=O)cc1	3.26	44.8 µM	18400	49.8	14.2	40.4 µM	3.29	48.9 µM	18300	44.9 µM	16.3	39.9	9.19	25.1
O=S(=O)(NCC1CCC(CNc2ccc(Cl)cc2)CC1)c1ccc(-c2ccccc2)cc1 (stereo not given)	–	–	12700	> 50	> 50	> 50 µM	17.4	> 50 µM	–	–	9.21	> 50	45.6	> 50
NC1CCN(c2nc(Nc3cccc(C(F)(F)F)c3)c3c(=O)[nH]ccc3n2)CC1	1.05	4.8 µM	1640	4.26	–	–	1.18	3.21 µM	1310	2.67 µM	1.34	2.99	1.44	3.04
CCCCCCCCCCN(CCCCCCCCCC)CC(=O)c1ccc2cc(Br)c3ccccc3c2c1	2.66	6.2 µM	3590	21.7	1.84	3.48 µM	2.05	4.84 µM	1980	3.5 µM	4.15	14.4	1.88	5.12
Cc1nc2ccc(Nc3nc(NCCN4CCOCC4)nc(Nc4ccc(F)cc4)n3)cc2n1Cc1ccccc1	2.7	10.9 µM	1870	6.66	2.16	4.61 µM	1.79	7.42 µM	1590	4.07 µM	3.69	> 100	1.59	6.48
CN(C)N1C(=O)c2ccccc2NC1c1ccccc1 (stereo not given)	–	> 100 µM	–	> 100	–	> 100 µM	–	–	–	–	–	> 100	–	> 100
N=C(N=C(N)N)N1CCN(c2ccncc2)CC1	> 1000	> 1000 µM	913000	> 1000	> 1000	> 1000 µM	> 1000	> 1000 µM	–	–	> 1000	> 1000	> 1000	> 1000
O=C(NCCCNc1cc(-c2cn(-c3ccccc3)nc2-c2cccc(O)c2)ccn1)c1ccccc1	1.41	3.78 µM	3060	48.3	3.42	13.7 µM	–	–	1970	6.2 µM	4.62	34.4	1.7	24.5
